This experiment deals with CD2F1 mice, L1210 leukemia ip, survival T/C. In words: NCI In Vivo Anticancer Drug Screen. Data for tumor model L1210 Leukemia (intraperitoneal) in CD2F1 (CDF1) mice. Conditions: higher = longer survival. Put shortly:
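Transplantable tumor in mice; compound-treated vs vehicle-treated groups. Read-out = treated/control ratio of the measured endpoint.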

Where [1] appears, read: endpoint: mean survival time, dose: 100.0 mg/kg/injection, schedule: Q04DX003 (ip), vehicle: saline with Tween-80.
[2] abbreviates: endpoint: mean survival time, dose: 200.0 mg/kg/injection, schedule: Q04DX003 (ip), vehicle: saline with Tween-80.
The mark [3] stands for this setting: endpoint: mean survival time, dose: 400.0 mg/kg/injection, schedule: Q04DX003 (ip), vehicle: saline with Tween-80.
Where [4] appears, read: endpoint: mean survival time, dose: 100.0 mg/kg/injection, schedule: Q01DX009 (ip), vehicle: saline with Tween-80.
Where [5] appears, read: endpoint: mean survival time, dose: 200.0 mg/kg/injection, schedule: Q01DX009 (ip), vehicle: saline with Tween-80.
Setting [6] is: endpoint: mean survival time, dose: 400.0 mg/kg/injection, schedule: Q01DX009 (ip), vehicle: saline with Tween-80.
Where [7] appears, read: endpoint: mean survival time, dose: 100.0 mg/kg/injection, schedule: Q01DX001 (ip), vehicle: saline with Tween-80.
The mark [8] stands for this setting: endpoint: mean survival time, dose: 100.0 mg/kg/injection, schedule: Q04DX002 (ip), vehicle: saline with Tween-80.
[9] abbreviates: endpoint: mean survival time, dose: 200.0 mg/kg/injection, schedule: Q01DX001 (ip), vehicle: saline with Tween-80.
[10] abbreviates: endpoint: mean survival time, dose: 200.0 mg/kg/injection, schedule: Q04DX002 (ip), vehicle: saline with Tween-80.
Setting [11] is: endpoint: mean survival time, dose: 400.0 mg/kg/injection, schedule: Q01DX001 (ip), vehicle: saline with Tween-80.
Where [12] appears, read: endpoint: mean survival time, dose: 400.0 mg/kg/injection, schedule: Q04DX002 (ip), vehicle: saline with Tween-80.
Where [13] appears, read: endpoint: mean survival time, dose: 50.0 mg/kg/injection, schedule: Q01DX009 (ip), vehicle: saline with Tween-80.

Where “and” joins values, the source holds several entries; their conditions need not be identical. Equal values may be shown once. Inconclusive results and toxic doses are left out.

T/C data for 24 compounds are collected here from PubChem BioAssay AID256 (DTP/NCI, 2004).

Consider `CCCCCCC(Sc1nn(C2OC(COC(=O)c3ccccc3)C(OC(=O)c3ccccc3)C2OC(=O)c2ccccc2)c(=O)[nH]c1=O)C(=O)OCC` (stereo not drawn), for which the T/C reads like this: (endpoint: mean survival time, dose: 12.5 mg/kg/injection, schedule: Q01DX005 (ip), vehicle: distilled water + Tween-80) 100 % of control; (endpoint: mean survival time, dose: 25.0 mg/kg/injection, schedule: Q01DX005 (ip), vehicle: distilled water + Tween-80) 100 % of control; (endpoint: mean survival time, dose: 50.0 mg/kg/injection, schedule: Q01DX005 (ip), vehicle: distilled water + Tween-80) 94 % of control; (endpoint: mean survival time, dose: 100.0 mg/kg/injection, schedule: Q01DX005 (ip), vehicle: distilled water + Tween-80) 95 % of control; (endpoint: mean survival time, dose: 200.0 mg/kg/injection, schedule: Q01DX005 (ip), vehicle: distilled water + Tween-80) 94 % of control.

Regarding `Cc1c2ccccc2c(CN2CC(O)CC2C(=O)O)c2ccccc12` (stereo not drawn), the T/C is, setting by setting: under setting [1], 94 % of control; under setting [2], 93 % of control; under setting [3], 87 % of control.

For `CCOC(=O)c1cc(=O)[nH]c2ccc(OC)cc12`, the T/C under setting [4] is 98 % of control, the T/C under setting [5] is 104 % of control and the T/C under setting [6] is 104 % of control.

As to `CC1(C)NC(=O)N(Br)C1=O`, the T/C is 88 % of control under setting [4]; 103 % of control under setting [1]; 89 % of control under setting [5]; 96 % of control under setting [2]; 103 % of control under setting [3].

Turning to `Oc1ccc(Nc2c3ccccc3nc3c2ccc2ccccc23)cc1CN(CCCl)CCCl`, the T/C (endpoint: mean survival time, dose: 6.25 mg/kg/injection, schedule: Q01DX009 (ip), vehicle: saline) was 91 % of control.

Take `C/C(=C\C(=O)Nc1ccc(S(=O)(=O)F)cc1)c1ccc([N+](=O)[O-])cc1`: the T/C (endpoint: mean survival time, dose: 25.0 mg/kg/injection, schedule: Q04DX002 (ip), vehicle: saline with Tween-80) is 103 % of control and 104 % of control; the T/C (endpoint: mean survival time, dose: 50.0 mg/kg/injection, schedule: Q04DX002 (ip), vehicle: saline with Tween-80) was 96 % of control and 102 % of control; the T/C under setting [7] is 97 % of control; the T/C under setting [4] was 104 % of control and 106 % of control; the T/C under setting [8] was 100 % of control (2×) and 104 % of control; the T/C under setting [1] was 104 % of control. In addition, the T/C is 92 % of control under setting [9]; 96 % of control under setting [5]; 96 % of control and 102 % of control and 107 % of control under setting [10]; 101 % of control under setting [2]; 95 % of control under setting [11]; 96 % of control and 100 % of control under setting [6]. For the same compound, the T/C under setting [12] was 98 % of control and the T/C under setting [3] is 93 % of control.

Take `[Cl][Pt][Cl].[NH-]NC(=O)c1ccncc1`: the T/C by setting is: (endpoint: mean survival time, dose: 12.5 mg/kg/injection, schedule: Q04DX003 (ip), vehicle: saline with Tween-80) 95 % of control; (endpoint: mean survival time, dose: 25.0 mg/kg/injection, schedule: Q04DX003 (ip), vehicle: saline with Tween-80) 94 % of control; (endpoint: mean survival time, dose: 50.0 mg/kg/injection, schedule: Q04DX003 (ip), vehicle: saline with Tween-80) 91 % of control; under setting [1], 94 % of control; under setting [2], 88 % of control.

For `COc1ccc(C=C(C(=O)CCN(C)C)C(=O)CCN(C)C)cc1`, the T/C runs as follows: (endpoint: median survival time, dose: 25.0 mg/kg/injection, schedule: Q01DX005 (ip), vehicle: saline) 100 % of control; (endpoint: median survival time, dose: 50.0 mg/kg/injection, schedule: Q01DX005 (ip), vehicle: saline) 100 % of control; (endpoint: median survival time, dose: 100.0 mg/kg/injection, schedule: Q01DX005 (ip), vehicle: saline) 100 % of control; (endpoint: median survival time, dose: 200.0 mg/kg/injection, schedule: Q01DX005 (ip), vehicle: saline) 102 % of control.

For `COc1ccc(CN(CCO)Cc2ccccc2)cc1OC`, the T/C under setting [13] is 100 % of control; the T/C under setting [4] was 90 % of control; the T/C under setting [1] was 98 % of control; the T/C under setting [5] was 100 % of control; the T/C under setting [2] is 97 % of control.

As to `CCc1ccc(NC(=O)/C=C/c2ccccc2)cc1`, the T/C under setting [8] was 93 % of control, the T/C under setting [10] is 89 % of control and the T/C under setting [12] is 104 % of control.

Turning to `COc1ccc(C(C)C(C)=O)cc1` (stereo not drawn), the T/C by setting is: (endpoint: mean survival time, dose: 12.5 mg/kg/injection, schedule: Q01DX009 (ip), vehicle: saline with Tween-80) 91 % of control; (endpoint: mean survival time, dose: 25.0 mg/kg/injection, schedule: Q01DX009 (ip), vehicle: saline with Tween-80) 91 % of control; under setting [13], 95 % of control.

As to `Nc1c[nH]c(=O)[nH]c1=O`, the T/C runs as follows: under setting [8], 101 % of control; under setting [10], 109 % of control; under setting [12], 109 % of control.

As for `CCCCCCCCCCCCCOc1ccc2ccccc2c1`, the T/C (endpoint: mean survival time, dose: 100.0 mg/kg/injection, schedule: Q01DX001 (ip), vehicle: Klucel (hydroxypropylcellulose) (HPC)) is 107 % of control; the T/C (endpoint: mean survival time, dose: 200.0 mg/kg/injection, schedule: Q01DX001 (ip), vehicle: Klucel (hydroxypropylcellulose) (HPC)) is 96 % of control; the T/C (endpoint: mean survival time, dose: 400.0 mg/kg/injection, schedule: Q01DX001 (ip), vehicle: Klucel (hydroxypropylcellulose) (HPC)) was 87 % of control.

Regarding `CCCCOC(=O)/C=C/C(=O)OCCCC`, the T/C was 102 % of control under setting [1], 102 % of control under setting [2] and 105 % of control under setting [3].

Consider `COc1cccc2c1C(=O)c1c(O)c3c(c(O)c1C2=O)C[C@@](O)(/C(CO)=N/NC(=O)c1ccc(Cl)c(Cl)c1)C[C@@H]3OC1CC(N)C(O)C(C)O1` (stereo partly drawn), for which the T/C is, setting by setting: (endpoint: mean survival time, dose: 1.0 mg/kg/injection, schedule: Q01DX009 (ip), vehicle: water) 86 % of control; (endpoint: mean survival time, dose: 2.0 mg/kg/injection, schedule: Q01DX009 (ip), vehicle: water) 116 % of control and 89 % of control; (endpoint: mean survival time, dose: 4.0 mg/kg/injection, schedule: Q01DX009 (ip), vehicle: water) 92 % of control; (endpoint: mean survival time, dose: 8.0 mg/kg/injection, schedule: Q01DX009 (ip), vehicle: water) 92 % of control; (endpoint: mean survival time, dose: 16.0 mg/kg/injection, schedule: Q01DX009 (ip), vehicle: water) 252 % of control and 97 % of control; (endpoint: mean survival time, dose: 32.0 mg/kg/injection, schedule: Q01DX009 (ip), vehicle: water) 113 % of control and 111 % of control.

As for `COc1cc2nc(/C=C/c3nc4cc(OC)c(OC)cc4[nH]3)[nH]c2cc1OC`, the T/C under setting [7] is 106 % of control.

As to `CCC(=O)Nc1cccc(OS(=O)(=O)N(C)C)c1`, the T/C runs as follows: under setting [2], 97 % of control; under setting [3], 94 % of control.

Consider `Cc1c[n+]([O-])cc(=O)[nH]1`, for which the T/C by setting is: under setting [4], 97 % of control; under setting [1], 96 % of control; under setting [5], 97 % of control; under setting [2], 100 % of control; under setting [6], 95 % of control; under setting [3], 100 % of control.

Regarding `Cc1ccc(C)c(N=Nc2ccc(O)cc2)c1`, the T/C is, setting by setting: under setting [1], 104 % of control; under setting [2], 100 % of control; under setting [3], 105 % of control.

With `CCCCCCCCCCCCCCCC(=O)N(C/C=C/CN(C(=O)CCCCCCCCCCCCCCC)C(C)CCCN(CC)CC)C(C)CCCN(CC)CC` (stereo not drawn), the T/C runs as follows: (endpoint: mean survival time, dose: 12.5 mg/kg/injection, schedule: Q01DX009 (ip), vehicle: other) 97 % of control; (endpoint: mean survival time, dose: 25.0 mg/kg/injection, schedule: Q01DX009 (ip), vehicle: other) 94 % of control.

As to `CCOC(=O)N1CCc2nc3cc(OC)ccc3cc21`, the T/C is 103 % of control under setting [7], 98 % of control under setting [9] and 98 % of control under setting [11].

For the compound `CC/C(=N/NC(=O)c1ccccc1)c1ccccc1`, the T/C was 97 % of control (endpoint: mean survival time, dose: 100.0 mg/kg/injection, schedule: Q01DX009 (ip), vehicle: Klucel (hydroxypropylcellulose) (HPC)); 96 % of control (endpoint: mean survival time, dose: 100.0 mg/kg/injection, schedule: Q04DX003 (ip), vehicle: Klucel (hydroxypropylcellulose) (HPC)); 94 % of control (endpoint: mean survival time, dose: 200.0 mg/kg/injection, schedule: Q04DX003 (ip), vehicle: Klucel (hydroxypropylcellulose) (HPC)); 86 % of control (endpoint: mean survival time, dose: 400.0 mg/kg/injection, schedule: Q04DX003 (ip), vehicle: Klucel (hydroxypropylcellulose) (HPC)).

As for `O=C(N/N=C\c1ccc(Cl)cc1)c1ccccc1`, the T/C was 94 % of control under setting [13], 101 % of control under setting [4] and 95 % of control under setting [5].

As to `O=C(CC(NC(=O)OCc1ccccc1)c1nn[nH]n1)OCc1ccccc1` (stereo not drawn), the T/C is 86 % of control under setting [1], 94 % of control under setting [2] and 91 % of control under setting [3].
